# Tests used:
# USP24 [1] = molecular target: T1, USP24 (Homo sapiens, UniProt Q9UPU5); conditions: known; cited from earlier work
# USP24-WT mice = assay: liver tissue section H&E staining after normal diet or high-fat diet and USP24 inhibitor; format: in vivo; conditions: USP24 inhibitor oral 2 months
# Text: (§1) Animal-related experiments had been reviewed and approved by the Institutional Animal Care and Use Committee (IACUC) of National Cheng Kung University (NCKU). These genetically modified mice were generated at the National Laboratory Animal Center (NLAC) in Tainan, Taiwan. After breeding, 2 months-old wild-type mice and genetically modified mice were used to study lipogenesis progress. The cages provided adequate space, and the population density allowed the animals to move freely. The provided feed was sufficient for the normal growth and maintenance of regular body weight in both wild-type and genetically modified mice. Genetically modified mice had access to fresh, uncontaminated drinking water. Genetically modified mice were observed and cared for at least 2 to 3 times a week. All animal-related procedures were conducted in accordance with relevant guidelines and regulations.
# It was known that USP24 inhibitor (USP24-i1, NCI677397, Formula I-3-3) could block USP24 catalytic activity, delaying or reversing cancer drug resistance.
# HFD mice [2] = assay: treatment of HFD mice from the initiation of the experiment (previous studies of the inventors); format: in vivo; conditions: HFD mice treated i.p. from the initiation of the experiment
# Text: (§2) In the previous studies of the inventors, USP24-i-101 treated (i.p.) the HFD mice from the initiation of the experiment. […] In this Example, USP24-i-101 treated the mice after obesity, not from initiation. Mice were fed with HFD for two months and then treated with USP24-i-101 one month (two times per week, i.p.).
# HFD mice [3] = assay: magnetic resonance imaging (MRI) of level and distribution of fat in HFD mice; conditions: MRI in vivo signal and collected kidney organs
# Text: The HFD mice with or without USP24-i-101 treatment according to the experimental flowchart of FIG. 12A were examined by magnetic resonance imaging (MRI) equipment to assess the level and distribution of fat inside them.
# USP24-WT HFD mice = assay: Oil-Red-O staining assay of liver tissue sections (hepatic lipid accumulation); format: in vivo; conditions: i.p. 10 mg/kg once a week for two consecutive months
# Text: as §1
# In this embodiment, the analysis of hepatic lipid accumulation and distribution were performed using the Oil-Red-O staining assay. […] The USP24 inhibitor was administered by intraperitoneal injection (i.p.) at a dose of 10 mg/kg once a week for two consecutive months. Statistical analysis was conducted using a t-test, where * indicates p<0.01, and ** indicates p<0.005 (FIG. 5B).
# HFD mice [4] = assay: treatment of HFD mice after obesity: body weight, visceral fat, fatty liver, eWAT and iWAT; format: in vivo
# Text: as §2
# In addition, USP24-i-101 could inhibit eWAT and iWAT of mice. The subcutaneous fat and visceral fat (around organs such as kidney and reproductive organs) were collected to analyze the size of the epididymal WAT [eWAT, as shown in FIG. 11D (a), upper panel of FIG. 11D(c) and upper panel of FIG. 11D(d)] and inguial WAT [iWAT, as shown in FIG. 11D(b), lower panel of FIG. 11D(c) and lower panel of FIG. 11D(d)].
# 3T3-L1 cells = assay: differentiation of 3T3-L1 cells into adipocytes, Oil-Red-O staining; format: cell-based, mouse; conditions: 5 μM or 10 μM, MDIR induction, Oil-Red-O on days 8-10; dose-dependent; vs DMSO
# Procedure: (§3) Commercially available mouse fibroblast cell line 3T3-L1 was cultured in commercially available Dulbecco's Modified Eagle Medium (DMEM) containing 10% fetal bovine serum (FBS), 100 μg/mL streptomycin, and 100 U/ml penicillin G sodium salt. All cell cultures were maintained at 37° C. with 5% CO2.
# Please referred to FIG. 6A, which illustrated the experimental procedure for evaluating the effects of USP24 inhibitor on the induction of 3T3-L1 cells into adipocytes according to an embodiment of the present invention. When 3T3-L1 cells reached approximately 70% confluence, the MDIR induction medium containing USP24 inhibitor (5 μM or 10 μM) was added to the cells on day 0 and cultured for 2 days. Subsequently, on day 2, the induction medium was replaced with fresh medium containing USP24 inhibitor (5 μM or 10 μM) and insulin (10 μg/mL), and the cells were cultured for an additional 2 days. Next, the culture medium was changed the fresh medium containing USP24 inhibitor on day 4, and the cells were cultured for 4-6 more days, allowing 3T3-L1 cells to differentiate into adipocytes or adipocyte-like cells. And then, the cells were stained with Oil-Red-O (on days 8-10) to assess the influence of USP24 inhibitor on adipocyte formation, as shown in FIGS. 6B and 6C. […]
# HFD-mice = assay: serum tests / safety assay by ELISA in ND and HFD mice; format: in vivo; conditions: serum of HFD mice; i.p. 10 mg/kg once a week for two months
# Procedure: As shown in FIGS. 10A to 10H, serum were collected from normal diet (ND) and high fat diet (HFD) mice with or without USP24-i-101 treatment to study the safety assay by ELISA assay.
# In this Example, wild-type mice were fed a normal diet (ND) or a high-fat diet (HFD), and they were injected intraperitoneally (i.p.) with 10 mg/kg of USP24-i once a week for two consecutive months. Subsequently, mouse sera were collected, and serum-related indices were examined to assess the impact of USP24-i on lipogenesis and liver function, as depicted in FIGS. 10A to 10H.
# There was no statistically significant difference of the time of latency to fall off the rotarod between the USP 24 KO mice and the wild-type USP 24 mice, as shown in FIG. 10B. Mouse sera were collected from normal diet (ND) and high fat diet (HFD) mice with or without USP24-i treatment to perform the safety evaluation by ELISA assay. […] Therefore, USP24 inhibitor could inhibit the lipogenesis, thereby improving liver activity.
# CREB = CREB and its phosphorylation during 3T3-L1 differentiation; format: cell-based, mouse
# [5] = test system: differentiated 3T3-L1 cells; assay: Western blotting of proteins associated with adipocyte formation in 3T3-L1 cells; format: cell-based, mouse; conditions: Western blot, vs DMSO
# Procedure: as §3
# Please referred to FIG. 6A, which illustrated the experimental procedure for evaluating the effects of USP24 inhibitor on the induction of 3T3-L1 cells into adipocytes according to an embodiment of the present invention. When 3T3-L1 cells reached approximately 70% confluence, the MDIR induction medium containing USP24 inhibitor (5 μM or 10 μM) was added to the cells on day 0 and cultured for 2 days. Subsequently, on day 2, the induction medium was replaced with fresh medium containing USP24 inhibitor (5 μM or 10 μM) and insulin (10 μg/mL), and the cells were cultured for an additional 2 days. Next, the culture medium was changed the fresh medium containing USP24 inhibitor on day 4, and the cells were cultured for 4-6 more days, allowing 3T3-L1 cells to differentiate into adipocytes or adipocyte-like cells. And then, the cells were stained with Oil-Red-O (on days 8-10) to assess the influence of USP24 inhibitor on adipocyte formation, as shown in FIGS. 6B and 6C.
# The MDIR induction medium included 0.5 mM 3-isobutyl-1-methylxanthine (IBMX), 1 μM dexamethasone (D), […] insulin (I), and 1 μM rosiglitazone (R) in Dulbecco's Modified Eagle Medium (DMEM). The components M, D, R, and USP24 inhibitor were dissolved in dimethyl sulfoxide (DMSO) and then added to DMEM. The insulin culture medium contained 10 μg/mL insulin in DMEM, and the fresh medium included 10% fetal bovine serum (FBS) in DMEM.
# It was known that PPAR-γ and PLIN1 were important markers for adipocytes. In this embodiment, commercially available antibodies were used to perform Western blotting on 3T3-L1 cells to evaluate the expression levels of proteins associated with adipocyte formation in response to USP24-i-a treatment, as shown in FIGS. 7A to 7G.
# USP24 [6] = molecular target: T1, USP24; assay: inhibition of USP24 activity; format: biochemical; conditions: in comparison to USP24-i1; not shown in the figures
# [7] = HFD two months, then treatment one month, two times per week, i.p.
# T1 sequence (Q9UPU5 whole entry, species assumed): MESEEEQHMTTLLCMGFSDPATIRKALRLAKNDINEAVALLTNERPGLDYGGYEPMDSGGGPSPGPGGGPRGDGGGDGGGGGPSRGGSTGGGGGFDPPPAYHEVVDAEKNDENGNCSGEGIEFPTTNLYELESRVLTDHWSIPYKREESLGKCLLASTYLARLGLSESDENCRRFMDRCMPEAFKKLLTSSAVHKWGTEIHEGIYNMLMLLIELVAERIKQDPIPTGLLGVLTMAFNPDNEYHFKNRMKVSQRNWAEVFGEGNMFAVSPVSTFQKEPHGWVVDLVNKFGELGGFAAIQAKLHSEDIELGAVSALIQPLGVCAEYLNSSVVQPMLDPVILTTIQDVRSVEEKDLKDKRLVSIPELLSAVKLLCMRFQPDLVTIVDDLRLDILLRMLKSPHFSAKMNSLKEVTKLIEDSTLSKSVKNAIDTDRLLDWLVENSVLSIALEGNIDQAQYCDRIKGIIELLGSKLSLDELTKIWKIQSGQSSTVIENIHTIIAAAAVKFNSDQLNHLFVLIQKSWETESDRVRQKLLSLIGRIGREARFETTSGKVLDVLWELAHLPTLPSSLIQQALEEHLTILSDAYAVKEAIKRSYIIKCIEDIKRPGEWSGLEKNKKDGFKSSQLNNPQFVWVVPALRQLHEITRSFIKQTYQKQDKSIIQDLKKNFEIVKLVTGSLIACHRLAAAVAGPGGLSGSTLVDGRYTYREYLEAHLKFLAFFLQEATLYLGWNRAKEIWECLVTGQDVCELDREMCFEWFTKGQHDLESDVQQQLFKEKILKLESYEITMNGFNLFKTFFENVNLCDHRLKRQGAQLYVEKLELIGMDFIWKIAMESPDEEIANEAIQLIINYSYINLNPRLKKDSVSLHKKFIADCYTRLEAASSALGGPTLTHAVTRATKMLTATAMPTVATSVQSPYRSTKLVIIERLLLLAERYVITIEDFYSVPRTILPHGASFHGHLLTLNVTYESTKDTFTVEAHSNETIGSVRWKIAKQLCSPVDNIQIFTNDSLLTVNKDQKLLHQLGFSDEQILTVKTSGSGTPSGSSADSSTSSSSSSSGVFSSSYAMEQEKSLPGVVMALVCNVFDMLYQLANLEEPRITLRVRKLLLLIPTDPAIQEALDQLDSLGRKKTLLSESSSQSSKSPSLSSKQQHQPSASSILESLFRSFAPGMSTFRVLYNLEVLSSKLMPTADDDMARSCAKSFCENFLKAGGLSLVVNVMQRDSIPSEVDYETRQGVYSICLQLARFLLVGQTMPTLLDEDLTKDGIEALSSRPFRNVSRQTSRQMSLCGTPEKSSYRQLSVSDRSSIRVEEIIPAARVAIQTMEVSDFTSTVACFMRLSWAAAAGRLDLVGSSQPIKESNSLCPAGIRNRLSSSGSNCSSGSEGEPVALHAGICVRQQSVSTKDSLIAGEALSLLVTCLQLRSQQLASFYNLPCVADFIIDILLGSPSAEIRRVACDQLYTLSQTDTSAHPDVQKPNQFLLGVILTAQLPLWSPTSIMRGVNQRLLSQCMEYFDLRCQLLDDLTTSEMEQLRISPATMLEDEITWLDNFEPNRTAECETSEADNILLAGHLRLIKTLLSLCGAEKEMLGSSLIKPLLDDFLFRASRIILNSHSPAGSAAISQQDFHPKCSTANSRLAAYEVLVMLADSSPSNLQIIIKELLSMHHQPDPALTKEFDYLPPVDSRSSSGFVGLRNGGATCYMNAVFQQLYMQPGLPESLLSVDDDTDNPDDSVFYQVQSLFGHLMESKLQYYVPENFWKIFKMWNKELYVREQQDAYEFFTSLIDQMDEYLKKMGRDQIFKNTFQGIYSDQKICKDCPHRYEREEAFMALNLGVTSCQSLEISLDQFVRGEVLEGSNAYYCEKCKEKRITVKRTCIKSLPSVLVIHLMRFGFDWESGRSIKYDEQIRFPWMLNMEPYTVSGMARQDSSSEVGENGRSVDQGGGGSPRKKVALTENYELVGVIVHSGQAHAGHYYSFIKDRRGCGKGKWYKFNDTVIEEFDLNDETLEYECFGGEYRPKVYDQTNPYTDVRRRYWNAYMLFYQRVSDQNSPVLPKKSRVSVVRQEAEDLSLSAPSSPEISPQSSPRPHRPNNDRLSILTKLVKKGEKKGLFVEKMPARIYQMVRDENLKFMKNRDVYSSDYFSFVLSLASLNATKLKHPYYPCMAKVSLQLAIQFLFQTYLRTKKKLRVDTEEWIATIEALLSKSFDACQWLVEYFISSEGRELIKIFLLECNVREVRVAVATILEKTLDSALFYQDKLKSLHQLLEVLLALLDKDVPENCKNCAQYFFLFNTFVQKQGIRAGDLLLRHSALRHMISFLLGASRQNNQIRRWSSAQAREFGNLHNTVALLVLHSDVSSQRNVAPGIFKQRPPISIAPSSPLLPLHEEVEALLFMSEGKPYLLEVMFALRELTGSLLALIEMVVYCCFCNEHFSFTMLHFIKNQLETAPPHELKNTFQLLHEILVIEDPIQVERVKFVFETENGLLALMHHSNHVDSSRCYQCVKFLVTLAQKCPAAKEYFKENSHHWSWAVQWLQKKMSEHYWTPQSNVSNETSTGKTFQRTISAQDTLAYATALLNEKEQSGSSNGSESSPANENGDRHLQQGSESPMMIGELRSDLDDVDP
smiles,measurement,setting,value
CN1CCN(CCCCN2c3ccccc3Sc3ccc(C(=O)c4ccccc4)cc32)CC1 [USP24-i1],USP24 catalytic activity,USP24 [1],could block
CN1CCN(CCN2c3ccccc3Sc3ccc(C(=O)c4ccccc4)cc32)CC1 [USP24-i-a],lipid droplets in liver (H&E),"USP24-WT mice; USP24-WT HFD mice, 2 months high-fat diet",few to no lipid droplets
same,lipid droplets in liver (H&E),"USP24-WT mice; USP24-WT ND mice, 2 months normal diet",few to no lipid droplets
same,body weight,HFD mice [2],could be inhibited
same,fatty liver,HFD mice [2],could be inhibited
same,signal of fat around subcutaneous and organs,HFD mice [3],significantly inhibited
same,signals of Oil-Red-O staining in the liver,USP24-WT HFD mice,significantly reduced or nearly disappeared
same,size of epididymal WAT (eWAT),HFD mice [4]; HFD mice,could be inhibited
same,size of inguial WAT (iWAT),HFD mice [4]; HFD mice,could be inhibited
same,body weight,HFD mice [4]; [7],significantly decreased
same,fatty liver,HFD mice [4]; [7],really decreased
same,visceral fat,HFD mice [4]; [7],really decreased
same,lipid droplet accumulation,3T3-L1 cells,significant reversal
same,GOT (glutamic oxaloacetic transaminase),HFD-mice,significantly inhibited
same,GPT (glutamic pyruvic transaminase),HFD-mice,significantly inhibited
same,albumin (ALB),HFD-mice,did not significantly change
same,total cholesterol,HFD-mice,significantly inhibited
same,total protein (TP),HFD-mice,did not significantly change
same,triglyceride (TG),HFD-mice,did not significantly change
same,CREB,CREB,inhibited
same,CREB phosphorylation,CREB,inhibited
same,expression level of C/EBPβ,[5],also reduced
same,expression level of SREBP1,[5],also reduced
same,expression level of PLIN1 (Perilipin 1),[5]; dose-dependent,reduced
same,expression level of PPAR-γ,[5]; dose-dependent,reduced
same,inhibition of USP24 activity,USP24 [6],superior inhibition

# Reference: patent US20240197749A1, “METHOD OF INHIBITING LIPOGENESIS WITH UBIQUITIN-SPECIFIC PEPTIDASE 24 INHIBITOR COMPOSITION” (NATIONAL CHENG KUNG UNIVERSITY, priority 2022, published 2024)
